One compound from US20240400542A1 (University of Virginia Patent Foundation, priority 2021, published 2024) can be followed below.

Common to all, as to test: SILAC competitive chemical proteomic assay (TH211 probe, LC-MS/MS)
Assay [1] relates to Heat shock protein HSP 90-beta. Type of assay: cell-based, human. The following applies: TH207 inhibitor; HEK293T soluble fraction; tyrosine 61. Here is the method: (§1) The light and heavy proteomes (2.3 mg/mL, 432 μL) prepared from HEK293T cells that were pretreated in situ with vehicle (DMSO) or the inhibitor (2 μM), respectively, at 37° C. for 1 hr followed by probe TH211 treatment (50 μM) for 2 h, were directly were subjected to click reaction with the desthiobiotin-PEG3-azide (10 mM in DMSO, 10 μL, final concentration 200 μM) in the presence of TCEP (50 mM, 10 μL), TBTA (1.7 mM, 33 μL) and CuSO4 (50 mM, 10 μL) at room temperature for 1 hr. The light and the heavy samples were mixed in the chloroform-methanol extraction step. The subsequent steps including reduction with dithiothreitol, alkylation with iodoacetamide, digestion with Trypsin/Lys-C, enrichment with avidin beads were conducted as previously described^26.

In the next assay the target is T1, Alpha-enolase (Homo sapiens, UniProt P06733).
T1 construct: endogenous in cells; host or cells: HEK293T
T1 sequence (P06733 whole entry): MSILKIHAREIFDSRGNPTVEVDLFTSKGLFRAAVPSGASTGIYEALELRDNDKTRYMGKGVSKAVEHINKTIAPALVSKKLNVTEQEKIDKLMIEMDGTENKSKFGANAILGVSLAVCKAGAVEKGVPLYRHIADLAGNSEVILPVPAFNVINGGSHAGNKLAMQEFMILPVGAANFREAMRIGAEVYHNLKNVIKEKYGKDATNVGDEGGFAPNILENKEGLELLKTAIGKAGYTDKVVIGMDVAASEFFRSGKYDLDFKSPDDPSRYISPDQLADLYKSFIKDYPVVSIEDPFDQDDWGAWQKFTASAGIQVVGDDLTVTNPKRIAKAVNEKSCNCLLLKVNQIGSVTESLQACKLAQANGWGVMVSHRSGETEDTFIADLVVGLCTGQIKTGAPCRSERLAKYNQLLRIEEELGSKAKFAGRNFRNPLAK
The assay is classed as cell-based. The following applies: TH207 inhibitor; HEK293T soluble fraction; P06733.2 lysine 80. Here is the method: as §1

In assay [2] the target is T2, Proteasome subunit alpha type-2 (Homo sapiens, UniProt P25787).
T2 construct: endogenous in cells; host or cells: HEK293T
The assay is classed as cell-based. The following applies: TH207 inhibitor; HEK293T soluble fraction; P25787.2 lysine 92. On the procedure: as §1

The target of the next assay is T3, Isoleucine tRNA ligase (Homo sapiens, UniProt Q9NSE4).
T3 construct: endogenous in cells; host or cells: HEK293T
T3 sequence (Q9NSE4 49-1012): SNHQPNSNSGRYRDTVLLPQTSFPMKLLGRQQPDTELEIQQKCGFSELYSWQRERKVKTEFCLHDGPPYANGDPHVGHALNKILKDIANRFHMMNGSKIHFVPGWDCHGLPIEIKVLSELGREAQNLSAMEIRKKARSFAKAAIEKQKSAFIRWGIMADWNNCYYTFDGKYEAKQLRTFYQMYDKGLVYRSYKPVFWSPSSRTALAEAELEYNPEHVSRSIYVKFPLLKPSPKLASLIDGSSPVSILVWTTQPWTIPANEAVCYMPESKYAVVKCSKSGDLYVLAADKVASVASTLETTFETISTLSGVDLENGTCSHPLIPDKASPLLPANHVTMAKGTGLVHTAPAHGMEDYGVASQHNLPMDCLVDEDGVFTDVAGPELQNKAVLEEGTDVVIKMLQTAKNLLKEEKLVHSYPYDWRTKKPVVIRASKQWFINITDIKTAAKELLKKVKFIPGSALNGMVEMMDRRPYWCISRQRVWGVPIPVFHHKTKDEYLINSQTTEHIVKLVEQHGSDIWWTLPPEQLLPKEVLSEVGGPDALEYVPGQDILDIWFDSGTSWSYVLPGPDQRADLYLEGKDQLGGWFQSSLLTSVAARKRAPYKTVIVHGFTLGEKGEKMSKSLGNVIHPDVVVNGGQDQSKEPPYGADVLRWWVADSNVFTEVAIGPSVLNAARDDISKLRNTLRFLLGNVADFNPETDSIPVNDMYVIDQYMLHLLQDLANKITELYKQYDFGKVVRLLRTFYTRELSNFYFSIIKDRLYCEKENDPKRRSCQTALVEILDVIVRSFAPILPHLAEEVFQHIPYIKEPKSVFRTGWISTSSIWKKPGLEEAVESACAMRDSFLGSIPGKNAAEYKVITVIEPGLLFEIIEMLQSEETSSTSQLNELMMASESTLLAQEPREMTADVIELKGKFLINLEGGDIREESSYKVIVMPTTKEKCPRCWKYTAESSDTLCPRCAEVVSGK
Type of assay: cell-based. The following applies: TH207 inhibitor; HEK293T soluble fraction; Q9NSE4.2 tyrosine 260. On the procedure:
as §1

The next assay addresses T4, PFKL (Homo sapiens, UniProt P17858).
T4 construct: endogenous in cells; host or cells: HEK293T
T4 sequence (P17858 1-780): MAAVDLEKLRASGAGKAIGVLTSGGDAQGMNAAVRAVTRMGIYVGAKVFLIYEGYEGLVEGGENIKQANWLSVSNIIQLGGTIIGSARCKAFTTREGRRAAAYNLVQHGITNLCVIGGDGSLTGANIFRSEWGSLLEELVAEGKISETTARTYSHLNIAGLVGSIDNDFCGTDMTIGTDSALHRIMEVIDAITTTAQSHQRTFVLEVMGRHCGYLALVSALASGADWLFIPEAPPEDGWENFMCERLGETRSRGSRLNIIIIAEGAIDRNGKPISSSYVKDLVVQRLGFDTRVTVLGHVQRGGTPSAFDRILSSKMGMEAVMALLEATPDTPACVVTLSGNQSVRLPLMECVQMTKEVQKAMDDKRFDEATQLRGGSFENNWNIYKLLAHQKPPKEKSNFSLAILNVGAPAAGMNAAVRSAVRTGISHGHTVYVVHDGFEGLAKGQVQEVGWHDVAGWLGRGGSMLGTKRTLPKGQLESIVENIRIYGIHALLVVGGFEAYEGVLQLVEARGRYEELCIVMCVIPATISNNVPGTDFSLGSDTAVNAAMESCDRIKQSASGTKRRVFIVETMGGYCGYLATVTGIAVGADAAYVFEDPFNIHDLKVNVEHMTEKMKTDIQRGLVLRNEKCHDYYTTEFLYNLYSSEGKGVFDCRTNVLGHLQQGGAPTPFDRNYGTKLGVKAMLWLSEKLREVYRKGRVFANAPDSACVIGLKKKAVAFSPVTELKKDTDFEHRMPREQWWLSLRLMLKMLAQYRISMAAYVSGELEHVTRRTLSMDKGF
Type of assay: cell-based. On the procedure: as §1
Some SuTEx analogues with RF001 fragment were synthesized and characterized. The in situ competition assay was then conducted, during which HEK293T cells were treated with 1 μM of a SuTEx analogue for 1 h, followed by treatment with 25 μM of TH211 as the probe for 2 h. […] The analogues with electron-donating groups like methyl or methoxy on the para position of phenyl performed better than those with electron-withdrawing groups. Under the same condition, the IC5o of TH220 was determined as 305.6 nM. The identity of the bound protein was studied by LC-MS/MS. The assay results indicated PFKL as the potential target and that binding sites include Y674 and K677, since the ratio trends are the same as that found in the in situ competition assay. To study selective targeting of PFKL by the series of SuTEx analogues, Fag-PFKL, Flag-PFKM, and Flag-PFKP were overexpressed in HEK293T cells and in vitro competition assays were performed for comparison. […] To optimize these SuTEx ligands, another series of derivatives were synthesized and evaluated with TH233 as a negative control and TH220 as positive control, respectively. […] Compared to TH220, the probinding activity of XJ-2-103 with trifluoromethyl group at para position of the phenyl ring is not as good, which is consistent with the results shown in FIG. 18A.

The structures appear in SMILES notation.

Take `Cc1ccc(S(=O)(=O)n2cc(CCN3CCC(=C(c4ccc(F)cc4)c4ccc(F)cc4)CC3)nn2)cc1` [TH207, 4-(Bis(4-fluorophenyl)methylene)-1-(2-(1-tosyl-1H-1,2,3-triazol-4-yl)ethyl)piperidine]: in assay [1], the “Normalized SILAC ratio (SR), Heat shock protein HSP 90-beta Y61” value was determined as 1.5. The “Normalized SILAC ratio (SR), Alpha-enolase K80” value at Alpha-enolase came out at 1.6. In addition, the “Normalized SILAC ratio (SR), Proteasome subunit alpha type-2 K92” value in assay [2] is reported as 1.2. Also, the “Normalized SILAC ratio (SR), Isoleucine tRNA ligase Y260” value at Isoleucine tRNA ligase came to 1.8. Further, the “SILAC ratios (SR) from competitive chemical proteomic assay” value on PFKL (HEK293T in situ, vehicle (light) vs inhibitor 2 μM (heavy) 1 hr, then TH211 50 μM 2 h, protein/site not given) stood at 3.41. On PFKL (TH207 inhibitor, HEK293T soluble fraction, P17858.6 lysine 677), the “Normalized SILAC ratio (SR), PFKL K677” value is recorded as 2.7. Also, the “Normalized SILAC ratio (SR), PFKL Y674” value on PFKL (TH207 inhibitor, HEK293T soluble fraction, P17858.6 tyrosine 674) came out at 2.7.
